Assay results taken from ChEMBL document CHEMBL3885881, “DrugMatrix”.

Organism: Rattus norvegicus
Experiment: DrugMatrix - Regimen: Daily Repeat
Assay type: toxicity, organism-based, Sprague-Dawley
Parameters: regimen Daily Repeat, gender Male, age 6-8 weeks
Details: in vivo, po, route oral GAVAGE, vehicle .5 % CMC; for ABSOLUTE BASOPHIL / ABSOLUTE EOSINOPHIL / ABSOLUTE LYMPHOCYTE / ABSOLUTE MONOCYTE / ABSOLUTE SEGMENTED NEUTROPHIL / BASOPHIL / EOSINOPHIL / ERYTHROCYTE COUNT / HEMATOCRIT / HEMOGLOBIN / LEUKOCYTE COUNT / LYMPHOCYTE / MEAN CORPUSCULAR HEMOGLOBIN / MEAN CORPUSCULAR HEMOGLOBIN CONCENTRATION / MEAN CORPUSCULAR VOLUME / MONOCYTE / NEUTROPHIL / NUCLEATED RED BLOOD CELLS / PLATELET COUNT: tissue Blood; for ALANINE AMINOTRANSFERASE / ALBUMIN / ALKALINE PHOSPHATASE / ASPARTATE AMINOTRANSFERASE / BLOOD UREA NITROGEN / CARBON DIOXIDE / CHLORIDE / CHOLESTEROL / CREATINE PHOSPHOKINASE / CREATININE / GLUCOSE / LACTATE DEHYDROGENASE / LIPASE / PHOSPHORUS / POTASSIUM / SODIUM / TOTAL BILIRUBIN / TOTAL PROTEIN / URIC ACID: tissue Plasma
[1] = 0 mg/kg, 72 h, dose level Control, time 3 day
[2] = 0 mg/kg, 120 h, dose level Control, time 5 day
[3] = 385.5 mg/kg, 72 h, dose level Low, time 3 day

Structure (SMILES): Cn1c(=O)c2c(ncn2CC(O)CO)n(C)c1=O (centres undefined) [DYPHYLLINE]
- ABSOLUTE BASOPHIL [1]: 0 CELLS/uL
- ABSOLUTE EOSINOPHIL [1]: 32.5 CELLS/uL
- ABSOLUTE LYMPHOCYTE [1]: 13494.17 CELLS/uL
- ABSOLUTE MONOCYTE [1]: 474 CELLS/uL
- ABSOLUTE SEGMENTED NEUTROPHIL [1]: 1932.67 CELLS/uL
- BASOPHIL [1]: 0%
- EOSINOPHIL [1]: 0.17%
- ERYTHROCYTE COUNT [1]: 5.45 x10E6/uL
- HEMATOCRIT [1]: 34.32%
- HEMOGLOBIN [1]: 13.82 G/DL
- LEUKOCYTE COUNT [1]: 15.93 x10E3/uL
- LYMPHOCYTE [1]: 84.83%
- MEAN CORPUSCULAR HEMOGLOBIN [1]: 25.38 pg
- MEAN CORPUSCULAR HEMOGLOBIN CONCENTRATION [1]: 40.27 G/DL
- MEAN CORPUSCULAR VOLUME [1]: 63.05 fL
- MONOCYTE [1]: 3%
- NEUTROPHIL [1]: 12%
- NUCLEATED RED BLOOD CELLS [1]: 0.67 /100WBC
- PLATELET COUNT [1]: 1188.5 x10E3/uL
- ALANINE AMINOTRANSFERASE [1]: 54.83 u/L
- ALBUMIN [1]: 4.22 G/DL
- ALKALINE PHOSPHATASE [1]: 427.67 u/L
- ASPARTATE AMINOTRANSFERASE [1]: 86.5 u/L
- BLOOD UREA NITROGEN [1]: 15.33 mg/dL
- CARBON DIOXIDE [1]: 24.83 mmol/L
- CHLORIDE [1]: 102.33 MEQ/L
- CHOLESTEROL [1]: 71.67 mg/dL
- CREATINE PHOSPHOKINASE [1]: 442.5 u/L
- CREATININE [1]: 0.19 mg/dL
- GLUCOSE [1]: 160.67 mg/dL
- LACTATE DEHYDROGENASE [1]: 236.5 u/L
- LIPASE [1]: 9 u/L
- PHOSPHORUS [1]: 11.97 mg/dL
- POTASSIUM [1]: 6.2 MEQ/L
- SODIUM [1]: 142.85 MEQ/L
- TOTAL BILIRUBIN [1]: 0.2 mg/dL
- TOTAL PROTEIN [1]: 5.8 G/DL
- URIC ACID [1]: 1.3 mg/dL
- ABSOLUTE BASOPHIL [2]: 0 CELLS/uL
- ABSOLUTE EOSINOPHIL [2]: 114.5 CELLS/uL
- ABSOLUTE LYMPHOCYTE [2]: 14614 CELLS/uL
- ABSOLUTE MONOCYTE [2]: 173 CELLS/uL
- ABSOLUTE SEGMENTED NEUTROPHIL [2]: 1048.5 CELLS/uL
- BASOPHIL [2]: 0%
- EOSINOPHIL [2]: 0.67%
- ERYTHROCYTE COUNT [2]: 5.66 x10E6/uL
- HEMATOCRIT [2]: 35.52%
- HEMOGLOBIN [2]: 14.27 G/DL
- LEUKOCYTE COUNT [2]: 15.95 x10E3/uL
- LYMPHOCYTE [2]: 91.33%
- MEAN CORPUSCULAR HEMOGLOBIN [2]: 25.23 pg
- MEAN CORPUSCULAR HEMOGLOBIN CONCENTRATION [2]: 40.2 G/DL
- MEAN CORPUSCULAR VOLUME [2]: 62.7 fL
- MONOCYTE [2]: 1.17%
- NEUTROPHIL [2]: 6.83%
- NUCLEATED RED BLOOD CELLS [2]: 0.33 /100WBC
- PLATELET COUNT [2]: 1229 x10E3/uL
- ALANINE AMINOTRANSFERASE [2]: 58.67 u/L
- ALBUMIN [2]: 4.32 G/DL
- ALKALINE PHOSPHATASE [2]: 382.5 u/L
- ASPARTATE AMINOTRANSFERASE [2]: 81.67 u/L
- BLOOD UREA NITROGEN [2]: 17.67 mg/dL
- CARBON DIOXIDE [2]: 27.17 mmol/L
- CHLORIDE [2]: 102.33 MEQ/L
- CHOLESTEROL [2]: 63.67 mg/dL
- CREATINE PHOSPHOKINASE [2]: 227.67 u/L
- CREATININE [2]: 0.23 mg/dL
- GLUCOSE [2]: 155.33 mg/dL
- LACTATE DEHYDROGENASE [2]: 146.5 u/L
- LIPASE [2]: 10.67 u/L
- PHOSPHORUS [2]: 11.93 mg/dL
- POTASSIUM [2]: 6.85 MEQ/L
- SODIUM [2]: 143.95 MEQ/L
- TOTAL BILIRUBIN [2]: 0.18 mg/dL
- TOTAL PROTEIN [2]: 6.02 G/DL
- URIC ACID [2]: 1.63 mg/dL
- ABSOLUTE BASOPHIL [3]: 0 CELLS/uL
- ABSOLUTE EOSINOPHIL [3]: 40.67 CELLS/uL
- ABSOLUTE LYMPHOCYTE [3]: 10748 CELLS/uL
- ABSOLUTE MONOCYTE [3]: 461.33 CELLS/uL
- ABSOLUTE SEGMENTED NEUTROPHIL [3]: 1483.33 CELLS/uL
- BASOPHIL [3]: 0%
- EOSINOPHIL [3]: 0.33%
- ERYTHROCYTE COUNT [3]: 5.3 x10E6/uL
- HEMATOCRIT [3]: 33.37%
- HEMOGLOBIN [3]: 13.27 G/DL
- LEUKOCYTE COUNT [3]: 12.73 x10E3/uL
- LYMPHOCYTE [3]: 86%
- MEAN CORPUSCULAR HEMOGLOBIN [3]: 25.13 pg
- MEAN CORPUSCULAR HEMOGLOBIN CONCENTRATION [3]: 39.8 G/DL
- MEAN CORPUSCULAR VOLUME [3]: 63.07 fL
- MONOCYTE [3]: 3%
- NEUTROPHIL [3]: 10.67%
- NUCLEATED RED BLOOD CELLS [3]: 0.33 /100WBC
- PLATELET COUNT [3]: 1358 x10E3/uL
- ALANINE AMINOTRANSFERASE [3]: 42.67 u/L
- ALBUMIN [3]: 4.03 G/DL
- ALKALINE PHOSPHATASE [3]: 400.67 u/L
- ASPARTATE AMINOTRANSFERASE [3]: 72 u/L
- BLOOD UREA NITROGEN [3]: 15.67 mg/dL
- CARBON DIOXIDE [3]: 25.33 mmol/L
- CHLORIDE [3]: 103 MEQ/L
- CHOLESTEROL [3]: 72.33 mg/dL
- CREATINE PHOSPHOKINASE [3]: 199.67 u/L
- CREATININE [3]: 0.14 mg/dL
- GLUCOSE [3]: 152 mg/dL
- LACTATE DEHYDROGENASE [3]: 149.67 u/L
- LIPASE [3]: 9.33 u/L
- PHOSPHORUS [3]: 13 mg/dL
- POTASSIUM [3]: 7.04 MEQ/L
- SODIUM [3]: 144.5 MEQ/L
- TOTAL BILIRUBIN [3]: 0.17 mg/dL
- TOTAL PROTEIN [3]: 5.57 G/DL
- URIC ACID [3]: 1.53 mg/dL
